According to the supplement of paper PMC10307832:

What was measured:
Experiment in all cases: relative viability (nuclei count vs DMSO), 5 days (fraction); higher = more cells survive
[1] = system: NCI-H2342
How it was run: (§1)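 The day after seeding in 1536-well plates, lung cancer cell lines were treated by pin tool with a single drug, or with a fixed anchor-drug dose together with five library-drug doses (not always all listed) in √10 steps. After 5 days, a combined fix-and-stain solution (final 0.05% Triton X-100, 1% formaldehyde, 1 ug/ml Hoechst) was added. Nuclei counted on 4× images gave relative viability as treated counts over vehicle counts, reported as the median of duplicate plates.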

[2] = system: NCI-H647
How it was run: as §1

[3] = system: NCI-H1915
How it was run: as §1

[4] = system: NCI-H460
How it was run: as §1

[5] = system: SW 1573
How it was run: as §1

[6] = system: NCI-H1975
How it was run: as §1

[7] = system: A-427
How it was run: as §1

[8] = system: SK-LU-1
How it was run: as §1

[9] = system: PC-3 [JPC-3]
How it was run: as §1

[10] = system: HCC-78
How it was run: as §1

[11] = system: HCC-15
How it was run: as §1

SMILES: NC(=O)Nc1cc(-c2cccc(F)c2)sc1C(=O)N[C@H]1CCCNC1 [AZD7762] + Cc1cc(Nc2cc(N3CCN(C)CC3)nc(Sc3ccc(NC(=O)C4CC4)cc3)n2)n[nH]1 [Tozasertib] (partner 0.1 µM)
- relative viability ([1]; first compound 0.01 µM): 0.489
- relative viability ([1]; first compound 0.03162 µM): 0.501
- relative viability ([1]; first compound 0.1 µM): 0.502
- relative viability ([1]; first compound 0.3162 µM): 0.455
- relative viability ([1]; first compound 1 µM): 0.487
- relative viability ([2]; first compound 0.01 µM): 0.379
- relative viability ([2]; first compound 0.03162 µM): 0.218
- relative viability ([2]; first compound 0.1 µM): 0.314
- relative viability ([2]; first compound 0.3162 µM): 0.254
- relative viability ([2]; first compound 1 µM): 0.0439
- relative viability ([3]; first compound 0.01 µM): 0.471
- relative viability ([3]; first compound 0.03162 µM): 0.497
- relative viability ([3]; first compound 0.1 µM): 0.483
- relative viability ([3]; first compound 0.3162 µM): 0.415
- relative viability ([3]; first compound 1 µM): 0.368
- relative viability ([4]; first compound 0.01 µM): 0.506
- relative viability ([4]; first compound 0.03162 µM): 0.394
- relative viability ([4]; first compound 0.1 µM): 0.444
- relative viability ([4]; first compound 0.3162 µM): 0.357
- relative viability ([4]; first compound 1 µM): 0.031
- relative viability ([5]; first compound 0.01 µM): 0.225
- relative viability ([5]; first compound 0.03162 µM): 0.186
- relative viability ([5]; first compound 0.1 µM): 0.153
- relative viability ([5]; first compound 0.3162 µM): 0.15
- relative viability ([5]; first compound 1 µM): 0.117
- relative viability ([6]; first compound 0.01 µM): 0.762
- relative viability ([6]; first compound 0.03162 µM): 0.721
- relative viability ([6]; first compound 0.1 µM): 0.589
- relative viability ([6]; first compound 0.3162 µM): 0.469
- relative viability ([6]; first compound 1 µM): 0.367
- relative viability ([7]; first compound 0.01 µM): 0.215
- relative viability ([7]; first compound 0.03162 µM): 0.218
- relative viability ([7]; first compound 0.1 µM): 0.207
- relative viability ([7]; first compound 0.3162 µM): 0.179
- relative viability ([7]; first compound 1 µM): 0.175
- relative viability ([8]; first compound 0.01 µM): 0.374
- relative viability ([8]; first compound 0.03162 µM): 0.246
- relative viability ([8]; first compound 0.1 µM): 0.17
- relative viability ([8]; first compound 0.3162 µM): 0.128
- relative viability ([8]; first compound 1 µM): 0.142
- relative viability ([9]; first compound 0.01 µM): 0.859
- relative viability ([9]; first compound 0.03162 µM): 0.891
- relative viability ([9]; first compound 0.1 µM): 0.836
- relative viability ([9]; first compound 0.3162 µM): 0.873
- relative viability ([9]; first compound 1 µM): 0.85
- relative viability ([10]; first compound 0.01 µM): 0.539
- relative viability ([10]; first compound 0.03162 µM): 0.437
- relative viability ([10]; first compound 0.1 µM): 0.515
- relative viability ([10]; first compound 0.3162 µM): 0.44
- relative viability ([10]; first compound 1 µM): 0.404
- relative viability ([11]; first compound 0.01 µM): 0.448
- relative viability ([11]; first compound 0.03162 µM): 0.381
- relative viability ([11]; first compound 0.1 µM): 0.511
- relative viability ([11]; first compound 0.3162 µM): 0.432
- relative viability ([11]; first compound 1 µM): 0.212
